# Laboratory results from patent US7098012B1, “DNA demethylase, therapeutic and diagnostic uses thereof” (McGill University, priority 1997, dated 2006).
# “Also recorded” adds a separate entry of the source.
# What was measured:
# DNA dMTase [1] = assay: Demethylation of [mdC32pdG]n substrate (conversion of mdCMP to dCMP) with additives or pretreatment; type: biochemical, human; settings: 500 μM, initial rate conditions, FIG. 2a
# Method: (A) To assay the conversion of methyl-dCMP (mdCMP) to dCMP we used a previously described method (Szyf et al., 1995). Briefly, α^32P labeled, fully methylated poly[mdC^32PdG]n substrate was prepared as follows. One hundred ng of a double-stranded fully methylated (mdCpdG) oligomer (Pharmacia) were denatured by boiling, which was followed by partial annealing at room temperature. The complementary strand was extended with Klenow fragment (Boehringer Mannheim) using methyl-5-dCTP (mdCTP, 0.1 mM) (Boehringer Mannheim) and […] (100 μCi, 3000 Ci/mmol), and the unincorporated nucleotides were removed by chromatography through a NAP-5 column (Pharmacia). The NAP-5 chromatography was repeated to exclude minor contamination with unincorporated nucleotides. As a control a non-methylated poly[dC^32pdG]n substrate was similarly prepared except that a nonmethylated dCpdG oligomer served as a template and dCTP was used in the extension reaction. The column fractions (30 μl), described in the experimental procedures were incubated with 1 ng of poly[mdC^32pdG]n substrate for 1 hour at 37° C. in a buffer L containing 25% glycerol (v/v) and 5 mM EDTA. […] The digestion products were loaded onto a thin layer chromatography plate (TLC) (Kodak, 13255 Cellulose), separated in a medium containing, 132 ml Isobutyric acid:40 ml water:4 ml ammonia solution, autoradiographed and the intensity of the different spots was determined using a phosphorimager (Fuji, BAS 2000). ^32P labeled substrates and tritium labeled substrates were phosphoimaged using BAS 2000 plate and BAS-TR2040 phosphorimager plate respectively. (B) The second method determined removal of methylated residues from methylated DNA by measuring disappearance of ^3H—CH3 or ^14C—CH3 from the reaction mixture. […] The number of methyl groups that were removed from the DNA by the different fractions was determined by subtracting the remaining counts in each of the fractions from the counts remaining in the control. […]
# DNA dMTase [2] = target: DNA dMTase (Homo sapiens, UniProt Q9UBB5); assay: Volatilization of radioactive methyl residues assay; type: biochemical; settings: imidazole 1 μM to 10 mM; FIG. 16
# Sequence of DNA dMTase (Homo sapiens, UniProt Q9UBB5) (Q9UBB5 whole entry): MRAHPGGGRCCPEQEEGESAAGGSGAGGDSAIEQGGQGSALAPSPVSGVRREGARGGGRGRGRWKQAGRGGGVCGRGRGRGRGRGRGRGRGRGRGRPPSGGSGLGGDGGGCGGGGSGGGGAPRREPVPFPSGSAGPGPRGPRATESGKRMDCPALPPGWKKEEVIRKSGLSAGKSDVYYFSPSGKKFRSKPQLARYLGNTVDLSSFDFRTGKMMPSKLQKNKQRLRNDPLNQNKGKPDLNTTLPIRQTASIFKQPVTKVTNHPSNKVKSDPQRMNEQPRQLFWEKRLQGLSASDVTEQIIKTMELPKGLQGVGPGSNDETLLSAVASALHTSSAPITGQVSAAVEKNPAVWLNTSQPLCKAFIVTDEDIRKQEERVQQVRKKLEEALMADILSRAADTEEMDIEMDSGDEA
SMILES,inhibition of demethylation of the [mdC32pdG]n substrate (DNA dMTase [1]),inhibition of DNA dMTase activity (DNA dMTase [2]),inhibition of demethylation of the [mdC32pdG]n substrate (DNA dMTase [1]; listed as methyl dCTP)
Nc1ccn([C@H]2CC[C@@H](COP(=O)(O)OP(=O)(O)OP(=O)(O)O)O2)c(=O)n1 [ddCTP],insensitive; also recorded: does not inhibit,,
c1c[nH]cn1 [imidazole],,dose dependent inhibition,
"Cc1cn([C@H]2C[C@H](O)[C@@H](COP(=O)(O)OP(=O)(O)OP(=O)(O)O)O2)c(=O)nc1N [methyl-dCTP, methyl-5-dCTP]",nor is it inhibited,,not affected
